We go through 5 molecules from ChEMBL document CHEMBL1127708, “Aromatase inhibitors. Syntheses and structure-activity studies of novel pyridyl-substituted indanones, indans, and tetralins” (J Med Chem, 1994).

For one series, the target named is T1, Aromatase (Rattus norvegicus, UniProt P22443).
T1 sequence (P22443 whole entry): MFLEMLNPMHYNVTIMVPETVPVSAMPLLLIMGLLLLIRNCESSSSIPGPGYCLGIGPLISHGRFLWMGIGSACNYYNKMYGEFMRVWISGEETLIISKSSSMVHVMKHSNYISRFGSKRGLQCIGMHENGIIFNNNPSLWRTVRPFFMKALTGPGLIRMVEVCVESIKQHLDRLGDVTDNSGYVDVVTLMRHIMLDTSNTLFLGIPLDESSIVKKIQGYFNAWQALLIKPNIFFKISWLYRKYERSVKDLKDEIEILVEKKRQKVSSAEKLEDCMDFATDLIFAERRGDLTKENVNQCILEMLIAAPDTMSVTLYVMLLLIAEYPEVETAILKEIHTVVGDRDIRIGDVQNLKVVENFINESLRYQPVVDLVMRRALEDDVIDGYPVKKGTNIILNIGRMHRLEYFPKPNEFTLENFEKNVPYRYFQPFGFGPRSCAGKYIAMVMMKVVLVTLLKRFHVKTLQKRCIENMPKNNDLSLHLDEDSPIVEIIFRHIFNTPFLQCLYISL

For series [1], the species on record is Rattus norvegicus. It is filed as functional. To be noted: dose 10 mg/kg.
Series [2] is filed under the species Rattus norvegicus. It is filed as functional. To be noted: dose 10 mg/kg. The source holds these as a separate data set.
For series [3], the species on record is Rattus norvegicus. It is filed as functional. To be noted: dose 10 mg/kg. The source holds these as a separate data set.
For series [4], the species on record is Rattus norvegicus. It is filed as functional. Particulars: dose 10 mg/kg. The source holds these as a separate data set.
The species named for series [5] is Rattus norvegicus. It is filed as functional. Particulars: dose 10 mg/kg. This is another data set of the same source.
The species entered for series [6] is Rattus norvegicus. In kind it is functional. Particulars: dose 10 mg/kg. The source holds these as a separate data set.
Series [7] is filed under the species Rattus norvegicus. It is filed as functional. Particulars: dose 10 mg/kg. The source holds these as a separate data set.
For series [8], the species on record is Rattus norvegicus. It is filed as functional. To be noted: dose 10.3 mg/kg.
Series [9] is filed under the species Rattus norvegicus. It is filed as functional. To be noted: dose 10.3 mg/kg. This is another data set of the same source.
The species named for series [10] is Rattus norvegicus. It is filed as functional. To be noted: dose 10.3 mg/kg. The source holds these as a separate data set.
For series [11], the species on record is Rattus norvegicus. It is filed as functional. Particulars: dose 10.3 mg/kg. This is another data set of the same source.
The species entered for series [12] is Rattus norvegicus. It is filed as functional. To be noted: dose 10.3 mg/kg. The source holds these as a separate data set.
For series [13], the species on record is Rattus norvegicus. In kind it is functional. Particulars: dose 10.3 mg/kg. This is another data set of the same source.
For series [14], the species on record is Rattus norvegicus. In kind it is functional. To be noted: dose 10.3 mg/kg. The source holds these as a separate data set.
The species entered for series [15] is Rattus norvegicus. In kind it is functional.
Series [16] is filed under the species Rattus norvegicus. It is filed as functional. This is another data set of the same source.
The species entered for series [17] is Rattus norvegicus. In kind it is functional. The source holds these as a separate data set.
Series [18] is filed under the species Rattus norvegicus. It is filed as functional. The source holds these as a separate data set.
Series [19] is filed under the species Rattus norvegicus. It is filed as functional. Particulars: dose 10 mg/kg. The source holds these as a separate data set.
The species entered for series [20] is Rattus norvegicus. It is filed as functional. This is another data set of the same source.
Series [21] is filed under the species Rattus norvegicus. In kind it is functional. The source holds these as a separate data set.

On Aromatase, `O=C1c2ccc(O)cc2CC1Cc1ccncc1` (stereo not drawn) came in with an Effect of 160.

Molecule `COc1ccc2c(c1)CC(Cc1ccncc1)C2=O` (stereo not drawn) showed an Effect at Aromatase of 150.

Regarding `CCC1(c2ccc(N)cc2)CCC(=O)NC1=O` (stereo not drawn) [AMINOGLUTETHIMIDE], the “Change of tumor area” value was found to be 17% in the series filed under Rattus norvegicus [1], 23% in the series filed under Rattus norvegicus [2], 4% in the series filed under Rattus norvegicus [6] and 54% in the series listed under Rattus norvegicus [7]. The Of tumors in the series filed under Rattus norvegicus [3] is listed as 6%. Also, the No. of tumors in the series listed under Rattus norvegicus [4] was 35; in the series listed under Rattus norvegicus [5], 7.

`Oc1cccc2c1CCC(Cc1ccncc1)C2` (stereo not drawn): the “Change of tumor area” value in the series listed under Rattus norvegicus [8] came out at 24%; in the series filed under Rattus norvegicus [9] it was 19%; in the series listed under Rattus norvegicus [10] it was 16%; in the series listed under Rattus norvegicus [11] it was 41%; in the series listed under Rattus norvegicus [14], 123%. Besides, the values for the No. of tumors in the series listed under Rattus norvegicus [12] and in the series filed under Rattus norvegicus [13] were 37 and 4, respectively.

For the molecule `CCC(=O)OC1CCC2C3CCC4=CC(=O)CCC4C3CCC12C` (stereo not drawn), the “Change of tumor area” value in the series listed under Rattus norvegicus [15] was determined as 19%; in the series listed under Rattus norvegicus [16] it was 19%; in the series filed under Rattus norvegicus [17] it was 25%; in the series listed under Rattus norvegicus [18], 36%; in the series filed under Rattus norvegicus [19], 141%. Also, the figures for the No. of tumors in the series filed under Rattus norvegicus [20] and in the series filed under Rattus norvegicus [21] were 36 and 12, respectively.
